In ChEMBL document CHEMBL1128715, “Synthesis, resolution, and biological evaluation of the four stereoisomers of 4-methylglutamic acid: selective probes of kainate receptors” (J Med Chem, 1995):

Biological target: Glutamate receptor ionotropic, NMDA 2C (Rattus norvegicus, UniProt Q00961)
Test: Ability to inhibit [3H]CGS-19,755 binding to NMDA receptors.

Chain of Glutamate receptor ionotropic, NMDA 2C (Q00961 whole entry): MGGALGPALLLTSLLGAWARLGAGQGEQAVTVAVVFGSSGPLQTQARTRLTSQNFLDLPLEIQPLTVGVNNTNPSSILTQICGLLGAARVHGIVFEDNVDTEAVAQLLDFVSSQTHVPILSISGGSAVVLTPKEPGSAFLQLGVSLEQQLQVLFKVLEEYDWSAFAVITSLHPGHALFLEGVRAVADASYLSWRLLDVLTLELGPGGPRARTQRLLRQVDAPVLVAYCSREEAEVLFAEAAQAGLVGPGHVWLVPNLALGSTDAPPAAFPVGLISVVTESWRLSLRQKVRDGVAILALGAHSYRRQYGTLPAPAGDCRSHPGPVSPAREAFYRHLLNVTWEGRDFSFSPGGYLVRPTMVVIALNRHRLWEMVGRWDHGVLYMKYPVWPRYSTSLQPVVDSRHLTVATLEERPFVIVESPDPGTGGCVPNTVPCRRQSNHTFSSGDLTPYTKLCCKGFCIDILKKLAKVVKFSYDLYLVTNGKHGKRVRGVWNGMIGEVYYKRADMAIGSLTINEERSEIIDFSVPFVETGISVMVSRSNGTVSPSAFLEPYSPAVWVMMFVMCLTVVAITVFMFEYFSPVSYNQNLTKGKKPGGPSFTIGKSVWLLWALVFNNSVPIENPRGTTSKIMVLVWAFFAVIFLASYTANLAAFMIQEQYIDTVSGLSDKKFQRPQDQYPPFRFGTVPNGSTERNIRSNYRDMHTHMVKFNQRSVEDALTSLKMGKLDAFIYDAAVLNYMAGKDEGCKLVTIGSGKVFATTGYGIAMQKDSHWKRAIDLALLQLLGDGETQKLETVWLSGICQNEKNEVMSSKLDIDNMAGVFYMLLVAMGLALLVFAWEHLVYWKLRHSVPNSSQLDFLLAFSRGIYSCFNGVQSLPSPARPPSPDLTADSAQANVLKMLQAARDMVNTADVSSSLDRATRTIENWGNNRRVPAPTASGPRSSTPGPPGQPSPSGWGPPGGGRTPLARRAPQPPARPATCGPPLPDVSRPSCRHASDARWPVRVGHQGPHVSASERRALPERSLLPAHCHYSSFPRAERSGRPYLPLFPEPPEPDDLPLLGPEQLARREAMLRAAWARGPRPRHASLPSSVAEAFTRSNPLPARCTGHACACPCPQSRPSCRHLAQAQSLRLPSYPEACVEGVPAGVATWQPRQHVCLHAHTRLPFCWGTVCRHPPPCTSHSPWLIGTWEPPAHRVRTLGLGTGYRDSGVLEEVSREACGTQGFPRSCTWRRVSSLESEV

IC50: > 7 µM
SMILES: C[C@H](C[C@H](N)C(=O)O)C(=O)O [2S,4R-4-METHYLGLUTAMATE]
